Measurements taken from US20050124494A1, “Compositions comprising a phosphonic compound, and acids as methods for plant growth and regulatory effects” (priority 2003, published 2005).

Test system: Cotton
Assay: Defoliation of cotton by ethephon with and without muratic acid, field trial Bells TN October 2003
Format: in vivo
Conditions: for Cotton LEAF DEFOLIATION 3 DA-A: rating date Oct. 13, 2003, 3 days after application; for Cotton LEAF DEFOLIATION 6 DA-A: rating date Oct. 16, 2003, 6 days after application
From the text: A preferred mixture would be […] 10%-20% and Phosphoric Acid 1%-40%. This formulation would then be mixed with water as a carrier and applied to the foliage of the target plant at a rate of 3 gallons/Acre to 30 gallons/Acre.

[1] = ethephon 16 FL OZ/A (muratic acid 4 % V/V where combined)
[2] = ethephon 32 FL OZ/A (muratic acid 4 % V/V where combined)

SMILES | Cotton LEAF DEFOLIATION 3 DA-A [1] | Cotton LEAF DEFOLIATION 6 DA-A [1] | Cotton LEAF DEFOLIATION 3 DA-A [2] | Cotton LEAF DEFOLIATION 6 DA-A [2] | Effect of added acid on efficacy of ethephon and speed of the effect on cotton defoliation (summary in words of Table 1)
O=P(O)(O)CCCl [ETHEPHON, (2-chloroethyl)phosphonic acid] | 10.8% | 19.6% | 16.7% | 16.7% | –
Cl [Muratic Acid] | – | – | – | – | increased the efficacy of ethephon and the speed of the effect
